Test results as given in patent US8415272B2, “Quinoline derivatives and their use as fungicides” (Syngenta Crop Protection LLC, priority 2008, dated 2013).

Tests used:
Phytophthora infestans = test: whole plant or invertebrate; type: in vivo; conditions: in Solanum lycopersicum, foliar, 96 h, read-out: control of fungal infection, Phytophthora infestans
Plasmopara viticola = test: Leaf disk assay, Plasmopara viticola (downy mildew of grapevine), preventive; type: in vivo; conditions: foliar, 168 h, grapevine leaf disks, assessed seven days after inoculation, read-out: control of fungal infection, Plasmopara viticola
[1] = system: Erysiphe graminis f.sp. tritici; test: Leaf disk assay, Erysiphe graminis f.sp. tritici (wheat powdery mildew), preventive; type: in vivo; conditions: Blumeria graminis, foliar, 96 h, wheat leaf segments, assessed four days after inoculation, read-out: control of fungal infection, Erysiphe graminis f.sp. tritici
Description: The compounds were tested in a leaf disk assay, with methods described below. The test compounds were dissolved in DMSO and diluted into water to 200 ppm. In the case of the test on Pythium ultimum, they were dissolved in DMSO and diluted into water to 20 […] graminis f.sp. tritici (wheat powdery mildew): Wheat leaf segments were placed on agar in a 24-well plate and sprayed with a solution of the test compound. After allowing to dry completely, for between 12 and 24 hours, the leaf disks were inoculated with a spore suspension of the fungus. After appropriate incubation the activity of a compound was assessed four days after inoculation as preventive fungicidal activity.

[2] = system: Puccinia recondita f.sp. tritici; test: Leaf disk assay, Puccinia recondita f.sp. tritici (wheat brown rust), preventive; type: in vivo; conditions: foliar, 216 h, wheat leaf segments, assessed nine days after inoculation, read-out: control of fungal infection, Puccinia recondita f.sp. tritici
Septoria nodorum = test: Leaf disk assay, Septoria nodorum (wheat glume blotch), preventive; type: in vivo; conditions: Parastagonospora nodorum, foliar, 96 h, wheat leaf segments, assessed four days after inoculation, read-out: control of fungal infection, Septoria nodorum
Septoria tritici = test: Growth inhibition in nutrient broth, Septoria tritici (leaf blotch), photometric; type: cell-based; conditions: Zymoseptoria tritici, PDB broth, 24 C, 72 hrs, read-out: control of fungal infection, Septoria tritici
Pythium ultimum = test: Growth inhibition in potato dextrose broth, Pythium ultimum (damping off), photometric; type: cell-based; conditions: Globisporangium ultimum, 24° C., 48 hours, read-out: control of fungal infection, Pythium ultimum
Description: The compounds were tested in a leaf disk assay, with methods described below. The test compounds were dissolved in DMSO and diluted into water to 200 ppm. In the case of the test on Pythium ultimum, they were dissolved in DMSO and diluted into water to 20 ppm. Pythium ultimum (Damping off): Mycelial fragments of the fungus, prepared from a fresh liquid culture, were mixed into potato dextrose broth. A solution of the test compound in dimethyl sulphoxide was diluted with water to 20 ppm then placed into a 96-well microtiter plate and the nutrient broth containing the fungal spores was added. The test plate was incubated at 24° C. and the inhibition of growth was determined photometrically after 48 hours.

Fusarium culmorum = test: Growth inhibition in nutrient broth, Fusarium culmorum (root rot), photometric; type: cell-based; conditions: 48 h, read-out: control of fungal infection, Fusarium culmorum
Description: The compounds were tested in a leaf disk assay, with methods described below. The test compounds were dissolved in DMSO and diluted into water to 200 ppm. In the case of the test on Pythium ultimum, they were dissolved in DMSO and diluted into water to 20 ppm.
Fusarium culmorum (root rot): Conidia of the fungus from cryogenic storage were directly mixed into nutrient broth (PDB potato dextrose broth). After placing a (DMSO) solution of the test compounds into a microtiter plate (96-well format) the nutrient broth containing the fungal spores was added. The test plates were incubated at 24 C and the inhibition of growth was determined photometrically after 48 hrs.

C#Cc1cnc2ccc(OC(SC)C(=O)NC(C)(C#N)COC)cc2c1 (centres unmarked) [Example 25]
≥ 60%: pest or weed control at 200 ppm (Phytophthora infestans) | pest or weed control at 200 ppm (Plasmopara viticola) | pest or weed control at 200 ppm [1] | pest or weed control at 200 ppm [2] | pest or weed control at 200 ppm (Septoria nodorum) | inhibition of growth at 60 ppm (Septoria tritici) | inhibition of growth at 20 ppm (Pythium ultimum)

COCC#CC(C)(C)NC(=O)C(Oc1ccc2ncc(C#CCO)cc2c1)SC (centres unmarked) [Example 49]
≥ 60%: pest or weed control at 200 ppm (Phytophthora infestans) | pest or weed control at 200 ppm (Plasmopara viticola) | pest or weed control at 200 ppm [2] | inhibition of growth at 20 ppm (Pythium ultimum)

CC#Cc1cnc2ccc(OC(SC)C(=O)NC(C)(C)C#CCOC)cc2c1 (centres unmarked) [Example 55]
≥ 60%: pest or weed control at 200 ppm (Phytophthora infestans) | pest or weed control at 200 ppm (Plasmopara viticola) | pest or weed control at 200 ppm [1] | pest or weed control at 200 ppm [2] | pest or weed control at 200 ppm (Septoria nodorum) | inhibition of growth at 60 ppm (Septoria tritici) | inhibition of growth at 20 ppm (Pythium ultimum)

C#CC(C)(C)NC(=O)C(Oc1ccc2ncc(C#CC)cc2c1)SC (centres unmarked) [Example 57]
≥ 60%: pest or weed control at 200 ppm (Phytophthora infestans) | pest or weed control at 200 ppm (Plasmopara viticola) | pest or weed control at 200 ppm (Septoria nodorum) | inhibition of growth at 60 ppm (Septoria tritici) | inhibition of growth at 60 ppm (Fusarium culmorum)

C#Cc1cnc2c(Cl)cc(OC(SC)C(=O)NC(C)(C#N)COC)cc2c1 (centres unmarked) [Example 64]
≥ 60%: pest or weed control at 200 ppm (Phytophthora infestans) | pest or weed control at 200 ppm (Plasmopara viticola) | pest or weed control at 200 ppm [1] | pest or weed control at 200 ppm [2] | pest or weed control at 200 ppm (Septoria nodorum) | inhibition of growth at 60 ppm (Septoria tritici) | inhibition of growth at 20 ppm (Pythium ultimum)

C#Cc1cnc2ccc(OC(SC)C(=O)NC(C)(C#N)CSC)cc2c1 (centres unmarked) [Example 67]
≥ 60%: pest or weed control at 200 ppm (Phytophthora infestans) | pest or weed control at 200 ppm (Plasmopara viticola) | pest or weed control at 200 ppm [1] | pest or weed control at 200 ppm [2] | inhibition of growth at 60 ppm (Septoria tritici) | inhibition of growth at 20 ppm (Pythium ultimum)

CSC(Oc1ccc2ncc(C#CBr)cc2c1)C(=O)NC(C)(C)C (centres unmarked) [Example 69]
≥ 60%: pest or weed control at 200 ppm (Phytophthora infestans) | pest or weed control at 200 ppm (Plasmopara viticola) | inhibition of growth at 60 ppm (Septoria tritici) | inhibition of growth at 60 ppm (Fusarium culmorum) | inhibition of growth at 20 ppm (Pythium ultimum)

C#Cc1cnc2ccc(OC(SC)C(=O)NC3(C#N)CCC3)cc2c1 (centres unmarked) [Example 83]
≥ 60%: pest or weed control at 200 ppm (Phytophthora infestans) | pest or weed control at 200 ppm (Plasmopara viticola) | pest or weed control at 200 ppm [1] | pest or weed control at 200 ppm [2] | pest or weed control at 200 ppm (Septoria nodorum) | inhibition of growth at 60 ppm (Septoria tritici)

C#Cc1cnc2ccc(OC(SC)C(=O)NC(C)(C)CCOC)cc2c1 (centres unmarked) [Example 85]
≥ 60%: pest or weed control at 200 ppm (Phytophthora infestans) | pest or weed control at 200 ppm (Plasmopara viticola) | pest or weed control at 200 ppm [1] | pest or weed control at 200 ppm [2] | pest or weed control at 200 ppm (Septoria nodorum) | inhibition of growth at 60 ppm (Septoria tritici) | inhibition of growth at 20 ppm (Pythium ultimum)

C#Cc1cnc2ccc(OC(OC)C(=O)NC(C)(C)C#CC)cc2c1 (centres unmarked) [Example 86]
≥ 60%: pest or weed control at 200 ppm (Phytophthora infestans) | pest or weed control at 200 ppm (Plasmopara viticola) | pest or weed control at 200 ppm [1] | pest or weed control at 200 ppm [2] | pest or weed control at 200 ppm (Septoria nodorum) | inhibition of growth at 60 ppm (Septoria tritici)

C#Cc1cnc2ccc(OC(SC)C(=O)NC(C)(COC)COC)cc2c1 (centres unmarked) [Example 88]
≥ 60%: pest or weed control at 200 ppm (Phytophthora infestans) | pest or weed control at 200 ppm (Plasmopara viticola) | pest or weed control at 200 ppm [1] | pest or weed control at 200 ppm [2] | pest or weed control at 200 ppm (Septoria nodorum) | inhibition of growth at 60 ppm (Septoria tritici) | inhibition of growth at 20 ppm (Pythium ultimum)

C#Cc1cnc2ccc(OC(SC)C(=O)NC(C)(C)C#CCCOC)cc2c1 (centres unmarked) [Example 103]
≥ 60%: pest or weed control at 200 ppm (Phytophthora infestans) | pest or weed control at 200 ppm (Plasmopara viticola) | pest or weed control at 200 ppm [1] | pest or weed control at 200 ppm [2] | pest or weed control at 200 ppm (Septoria nodorum)

C#Cc1cnc2cc(F)c(OC(SC)C(=O)NC(C)(C)C(=O)OC)cc2c1 (centres unmarked) [Example 105]
≥ 60%: pest or weed control at 200 ppm (Phytophthora infestans) | pest or weed control at 200 ppm (Plasmopara viticola) | pest or weed control at 200 ppm [1] | pest or weed control at 200 ppm [2] | pest or weed control at 200 ppm (Septoria nodorum) | inhibition of growth at 60 ppm (Septoria tritici)

C#Cc1cnc2ccc(OC(CC)C(=O)NC(C)(C)CO)cc2c1 (centres unmarked) [Example 110]
≥ 60%: pest or weed control at 200 ppm (Phytophthora infestans) | pest or weed control at 200 ppm [1] | pest or weed control at 200 ppm (Septoria nodorum) | inhibition of growth at 60 ppm (Septoria tritici) | inhibition of growth at 60 ppm (Fusarium culmorum) | inhibition of growth at 20 ppm (Pythium ultimum)

C#Cc1cnc2c(C)cc(OC(CC)C(=O)NC(C)(C)C#CCOC)cc2c1 (centres unmarked) [Example 112]
≥ 60%: pest or weed control at 200 ppm (Phytophthora infestans) | pest or weed control at 200 ppm (Plasmopara viticola) | pest or weed control at 200 ppm [1] | pest or weed control at 200 ppm [2] | pest or weed control at 200 ppm (Septoria nodorum) | inhibition of growth at 60 ppm (Septoria tritici)

C#Cc1cnc2c(Cl)cc(OC(SC)C(=O)NC(C)(C)C#CCCCCl)cc2c1 (centres unmarked) [Example 123]
≥ 60%: pest or weed control at 200 ppm (Phytophthora infestans) | pest or weed control at 200 ppm (Plasmopara viticola) | pest or weed control at 200 ppm [1] | pest or weed control at 200 ppm [2] | pest or weed control at 200 ppm (Septoria nodorum) | inhibition of growth at 60 ppm (Septoria tritici)

C#Cc1cnc2ccc(OC(OC)C(=O)NC(C)(C)C#CCOC)cc2c1 (centres unmarked) [Example 125]
≥ 60%: pest or weed control at 200 ppm (Phytophthora infestans) | pest or weed control at 200 ppm (Plasmopara viticola) | pest or weed control at 200 ppm [1] | inhibition of growth at 60 ppm (Septoria tritici) | inhibition of growth at 60 ppm (Fusarium culmorum) | inhibition of growth at 20 ppm (Pythium ultimum)

C#Cc1cnc2ccc(OC(OC)C(=O)NC(C)(C#N)COC)cc2c1 (centres unmarked) [Example 128]
≥ 60%: pest or weed control at 200 ppm (Phytophthora infestans) | pest or weed control at 200 ppm (Plasmopara viticola) | pest or weed control at 200 ppm [1] | pest or weed control at 200 ppm (Septoria nodorum) | inhibition of growth at 60 ppm (Septoria tritici) | inhibition of growth at 20 ppm (Pythium ultimum)

C#Cc1cnc2c(C)cc(OC(SC)C(=O)NC(C)(C=O)COC)cc2c1 (centres unmarked) [Example 134]
≥ 60%: pest or weed control at 200 ppm (Phytophthora infestans) | pest or weed control at 200 ppm (Plasmopara viticola) | pest or weed control at 200 ppm [1] | pest or weed control at 200 ppm [2] | pest or weed control at 200 ppm (Septoria nodorum) | inhibition of growth at 60 ppm (Septoria tritici)

C#Cc1cnc2ccc(OC(SC)C(=O)NC3(CO)CCC3)cc2c1 (centres unmarked) [Example 148]
≥ 60%: pest or weed control at 200 ppm (Phytophthora infestans) | pest or weed control at 200 ppm (Plasmopara viticola) | pest or weed control at 200 ppm [1] | pest or weed control at 200 ppm [2] | inhibition of growth at 60 ppm (Septoria tritici)

C#Cc1cnc2ccc(OC(SC)C(=O)NC3(C(OC)OC)CCC3)cc2c1 (centres unmarked) [Example 153]
≥ 60%: pest or weed control at 200 ppm (Phytophthora infestans) | pest or weed control at 200 ppm (Plasmopara viticola) | pest or weed control at 200 ppm [1] | pest or weed control at 200 ppm (Septoria nodorum) | inhibition of growth at 60 ppm (Septoria tritici) | inhibition of growth at 20 ppm (Pythium ultimum)

C#Cc1cnc2ccc(OC(OC)C(=O)NC(C)(C#C)COC)cc2c1 (centres unmarked) [Example 155]
≥ 60%: pest or weed control at 200 ppm [1] | pest or weed control at 200 ppm [2] | pest or weed control at 200 ppm (Septoria nodorum)

C#CCOCC(C)(COCC#C)NC(=O)C(Oc1ccc2ncc(C#C)cc2c1)SC (centres unmarked) [Example 165]
≥ 60%: pest or weed control at 200 ppm (Phytophthora infestans) | pest or weed control at 200 ppm (Plasmopara viticola) | pest or weed control at 200 ppm [1] | pest or weed control at 200 ppm [2] | pest or weed control at 200 ppm (Septoria nodorum) | inhibition of growth at 60 ppm (Septoria tritici) | inhibition of growth at 20 ppm (Pythium ultimum)

C#Cc1cnc2cc(F)c(OC(SC)C(=O)NC(C)(C)C#CCC)cc2c1 (centres unmarked) [Example 190]
≥ 60%: pest or weed control at 200 ppm (Phytophthora infestans) | pest or weed control at 200 ppm (Plasmopara viticola) | inhibition of growth at 60 ppm (Fusarium culmorum) | inhibition of growth at 20 ppm (Pythium ultimum)

C#Cc1cnc2cc(F)c(OC(CC)C(=O)NC(C)(C)C=O)cc2c1 (centres unmarked) [Example 193]
≥ 60%: pest or weed control at 200 ppm (Phytophthora infestans) | pest or weed control at 200 ppm (Plasmopara viticola) | inhibition of growth at 60 ppm (Fusarium culmorum) | inhibition of growth at 20 ppm (Pythium ultimum)

C#Cc1cnc2ccc(OC(SC)C(=O)NC(C)(C)CC#N)cc2c1 (centres unmarked) [Example 197]
≥ 60%: pest or weed control at 200 ppm (Phytophthora infestans) | pest or weed control at 200 ppm (Plasmopara viticola) | inhibition of growth at 60 ppm (Fusarium culmorum) | inhibition of growth at 20 ppm (Pythium ultimum)

C#Cc1cnc2ccc(OC(SC)C(=O)NC(C)(C#C)CC)cc2c1 (centres unmarked) [Example 205]
≥ 60%: pest or weed control at 200 ppm (Phytophthora infestans) | pest or weed control at 200 ppm (Plasmopara viticola) | pest or weed control at 200 ppm [1] | inhibition of growth at 60 ppm (Fusarium culmorum) | inhibition of growth at 20 ppm (Pythium ultimum)

C#Cc1cnc2c(F)c(F)c(OC(SC)C(=O)NC(C)(C)C#CCOC)cc2c1 (centres unmarked) [Example 215]
≥ 60%: pest or weed control at 200 ppm (Phytophthora infestans) | pest or weed control at 200 ppm (Plasmopara viticola) | pest or weed control at 200 ppm [1] | pest or weed control at 200 ppm [2] | inhibition of growth at 60 ppm (Septoria tritici) | inhibition of growth at 20 ppm (Pythium ultimum)
